Data: PubChem BioAssay AID330 (DTP/NCI, 2004)
Several values for one entry are separate records, joined by “and”; a condition that tells them apart may be missing. Identical values can stand only once. Inconclusive results and toxic doses are left out. The calls were made as follows: active = survival T/C of 150% or more; inactive = T/C below 125% in these data.

Test system: P388 leukemia ip, CD2F1 mice, survival T/C
Test: NCI In Vivo Anticancer Drug Screen. Data for tumor model P388 Leukemia (intraperitoneal) in CD2F1 (CDF1) mice
Details: endpoint: median survival time, higher = longer survival
Outline: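 Mice carrying the transplanted tumor received test compound or vehicle. Survival was recorded in each group, and the value is the treated-group measurement divided by that of the vehicle-treated control group.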

[1] = dose: 25.0 mg/kg/injection, schedule: Q01DX009 (ip), vehicle: saline
[2] = dose: 50.0 mg/kg/injection, schedule: Q01DX009 (ip), vehicle: saline
[3] = dose: 100.0 mg/kg/injection, schedule: Q01DX009 (ip), vehicle: saline
[4] = dose: 50.0 mg/kg/injection, schedule: Q01DX005 (ip), vehicle: saline with Tween-80
[5] = dose: 100.0 mg/kg/injection, schedule: Q01DX005 (ip), vehicle: saline with Tween-80
[6] = dose: 400.0 mg/kg/injection, schedule: Q04DX003 (ip), vehicle: saline with Tween-80
[7] = dose: 50.0 mg/kg/injection, schedule: Q01DX009 (ip), vehicle: Klucel (hydroxypropylcellulose) (HPC)
[8] = dose: 100.0 mg/kg/injection, schedule: Q01DX009 (ip), vehicle: Klucel (hydroxypropylcellulose) (HPC)
[9] = dose: 200.0 mg/kg/injection, schedule: Q01DX009 (ip), vehicle: Klucel (hydroxypropylcellulose) (HPC)
[10] = dose: 50.0 mg/kg/injection, schedule: Q01DX005 (ip), vehicle: Klucel (hydroxypropylcellulose) (HPC)
[11] = dose: 100.0 mg/kg/injection, schedule: Q01DX005 (ip), vehicle: Klucel (hydroxypropylcellulose) (HPC)
[12] = dose: 200.0 mg/kg/injection, schedule: Q01DX005 (ip), vehicle: Klucel (hydroxypropylcellulose) (HPC)
[13] = dose: 60.0 mg/kg/injection, schedule: Q01DX005 (ip), vehicle: saline with Tween-80
[14] = dose: 120.0 mg/kg/injection, schedule: Q01DX005 (ip), vehicle: saline with Tween-80
[15] = dose: 240.0 mg/kg/injection, schedule: Q01DX005 (ip), vehicle: saline with Tween-80
[16] = dose: 100.0 mg/kg/injection, schedule: Q04DX002 (ip), vehicle: saline with Tween-80

Measured: T/C

CCCCCCCCCCCC(=O)OCCS(=O)(=O)CCOC(=O)CCCCCCCCCCC
inactive: dose: 100.0 mg/kg/injection, schedule: Q04DX003 (ip), vehicle: Klucel (hydroxypropylcellulose) (HPC) 104 % of control | dose: 200.0 mg/kg/injection, schedule: Q04DX003 (ip), vehicle: Klucel (hydroxypropylcellulose) (HPC) 103 % of control | dose: 400.0 mg/kg/injection, schedule: Q04DX003 (ip), vehicle: Klucel (hydroxypropylcellulose) (HPC) 99 % of control

COC(=O)c1cc(OC)nc(OC)n1
inactive: dose: 12.5 mg/kg/injection, schedule: Q01DX009 (ip), vehicle: distilled water + Tween-80 108 % of control | dose: 25.0 mg/kg/injection, schedule: Q01DX009 (ip), vehicle: distilled water + Tween-80 96 % of control | dose: 50.0 mg/kg/injection, schedule: Q01DX009 (ip), vehicle: distilled water + Tween-80 105 % of control | dose: 100.0 mg/kg/injection, schedule: Q01DX009 (ip), vehicle: distilled water + Tween-80 99 % of control

Cc1ccc(NCCNCCO)c2c1C(=O)c1ccccc1C2=O
inactive: [1] 100 % of control and 87 % of control | [2] 99 % of control and 89 % of control | dose: 50.0 mg/kg/injection, schedule: Q01DX009 (ip), vehicle: suspension in saline 116 % of control | [3] 101 % of control and 90 % of control | dose: 100.0 mg/kg/injection, schedule: Q01DX009 (ip), vehicle: suspension in saline 122 % of control | dose: 200.0 mg/kg/injection, schedule: Q01DX009 (ip), vehicle: saline 87 % of control and 95 % of control
active: dose: 200.0 mg/kg/injection, schedule: Q01DX009 (ip), vehicle: suspension in saline 151 % of control

c1ccc(Cc2ccc[nH]2)cc1
inactive: dose: 100.0 mg/kg/injection, schedule: Q01DX001 (ip), vehicle: distilled water + alcohol 100 % of control | dose: 200.0 mg/kg/injection, schedule: Q01DX001 (ip), vehicle: distilled water + alcohol 98 % of control | dose: 400.0 mg/kg/injection, schedule: Q01DX001 (ip), vehicle: distilled water + alcohol 112 % of control

CC(C)(C)SSC(=S)C1CCCCC1
inactive: dose: 25.0 mg/kg/injection, schedule: Q01DX005 (ip), vehicle: saline with Tween-80 108 % of control | [4] 106 % of control and 116 % of control | [5] 108 % of control and 118 % of control | dose: 200.0 mg/kg/injection, schedule: Q01DX005 (ip), vehicle: saline with Tween-80 117 % of control

S=c1sscc1-c1ccc2ccccc2c1
inactive: dose: 200.0 mg/kg/injection, schedule: Q04DX003 (ip), vehicle: saline with Tween-80 90 % of control | [6] 97 % of control

C=C1C(=O)O[C@@H]2CCC[C@H]12
inactive: dose: 12.5 mg/kg/injection, schedule: Q01DX009 (ip), vehicle: water 105 % of control | dose: 25.0 mg/kg/injection, schedule: Q01DX009 (ip), vehicle: water 112 % of control | dose: 50.0 mg/kg/injection, schedule: Q01DX009 (ip), vehicle: water 112 % of control | dose: 100.0 mg/kg/injection, schedule: Q01DX009 (ip), vehicle: water 108 % of control | dose: 200.0 mg/kg/injection, schedule: Q01DX009 (ip), vehicle: water 112 % of control

O=C(O)C(Cc1ccc(OC(=O)C(F)(F)F)cc1)NC(=O)C(F)(F)F (stereo not given)
inactive: dose: 25.0 mg/kg/injection, schedule: Q04DX003 (ip), vehicle: saline with Tween-80 95 % of control | dose: 50.0 mg/kg/injection, schedule: Q04DX003 (ip), vehicle: saline with Tween-80 100 % of control | dose: 100.0 mg/kg/injection, schedule: Q04DX003 (ip), vehicle: saline with Tween-80 100 % of control and 101 % of control | [6] 93 % of control

NS(=O)(=O)c1c[nH]c(=O)[nH]c1=O
inactive: [7] 105 % of control | [8] 93 % of control | [9] 97 % of control | dose: 400.0 mg/kg/injection, schedule: Q01DX009 (ip), vehicle: Klucel (hydroxypropylcellulose) (HPC) 91 % of control

O=C(Nc1ccc(Cl)c(C(F)(F)F)c1)Nc1c(Oc2ccc(Cl)c(Cl)c2)ccc(Cl)c1S(=O)(=O)O
inactive: [1] 118 % of control | [2] 118 % of control | [3] 118 % of control

COC(=O)[C@@H]1[C@H]2CS(=O)(=O)C[C@H]2[C@@H]1C(=O)OC
inactive: [10] 99 % of control | [11] 96 % of control | [12] 100 % of control

CC1CCC2=C(C1)c1ccc(O)cc1OC2(C)C (stereo not given)
inactive: [10] 100 % of control | [11] 96 % of control | [12] 93 % of control

CCOC1(C2(O)CCCCC2)CC(C)=NO1 (stereo not given)
inactive: dose: 100.0 mg/kg/injection, schedule: Q04DX002 (ip), vehicle: Klucel (hydroxypropylcellulose) (HPC) 104 % of control | dose: 200.0 mg/kg/injection, schedule: Q04DX002 (ip), vehicle: Klucel (hydroxypropylcellulose) (HPC) 98 % of control | dose: 400.0 mg/kg/injection, schedule: Q04DX002 (ip), vehicle: Klucel (hydroxypropylcellulose) (HPC) 102 % of control

CC(=O)O[C@@H]1CO[C@H]2O[C@H]3[C@@H](C(C=O)=C[C@H](O)[C@@H]4C5=C(C(C)C)CC[C@]5(C)CC[C@@]34C)[C@@]2(O)C1=O
inactive: dose: 0.39 mg/kg/injection, schedule: Q01DX009 (ip), vehicle: Klucel (hydroxypropylcellulose) (HPC) 94 % of control | dose: 0.78 mg/kg/injection, schedule: Q01DX009 (ip), vehicle: Klucel (hydroxypropylcellulose) (HPC) 104 % of control | dose: 3.12 mg/kg/injection, schedule: Q01DX009 (ip), vehicle: Klucel (hydroxypropylcellulose) (HPC) 107 % of control and 114 % of control | dose: 6.25 mg/kg/injection, schedule: Q01DX009 (ip), vehicle: Klucel (hydroxypropylcellulose) (HPC) 115 % of control and 121 % of control

CCCCCCCC/C=C\CCCCCCCCN1CCOCC1
inactive: [2] 97 % of control | [3] 106 % of control

C[Si](C)(C)CN=P(c1ccccc1)(c1ccccc1)c1ccccc1
inactive: [13] 102 % of control | [14] 103 % of control | [15] 105 % of control

CN=C1NC(=O)C(c2ccccc2)S1 (stereo not given)
inactive: [4] 99 % of control | [5] 99 % of control

CSc1cccc(NC(=O)Nc2c(C)n(C)n(-c3ccccc3)c2=O)c1
inactive: [7] 92 % of control | [8] 96 % of control | [9] 88 % of control

O=[N+]([O-])c1cccc(C(O)C=C(C(F)(F)F)C(F)(F)F)c1 (stereo not given)
inactive: dose: 25.0 mg/kg/injection, schedule: Q01DX009 (ip), vehicle: saline with Tween-80 100 % of control | dose: 25.0 mg/kg/injection, schedule: Q04DX003 (ip), vehicle: saline 100 % of control | dose: 33.0 mg/kg/injection, schedule: Q01DX009 (ip), vehicle: saline with Tween-80 109 % of control | dose: 50.0 mg/kg/injection, schedule: Q01DX009 (ip), vehicle: saline with Tween-80 113 % of control | dose: 50.0 mg/kg/injection, schedule: Q04DX003 (ip), vehicle: saline 95 % of control | dose: 75.0 mg/kg/injection, schedule: Q01DX009 (ip), vehicle: saline with Tween-80 113 % of control | dose: 100.0 mg/kg/injection, schedule: Q01DX009 (ip), vehicle: saline with Tween-80 113 % of control | dose: 100.0 mg/kg/injection, schedule: Q04DX003 (ip), vehicle: saline 100 % of control

CCCCOC(=O)NP1(=O)NCc2ccccc2CN1
inactive: dose: 12.5 mg/kg/injection, schedule: Q01DX005 (ip), vehicle: Klucel (hydroxypropylcellulose) (HPC) 93 % of control | dose: 25.0 mg/kg/injection, schedule: Q01DX005 (ip), vehicle: Klucel (hydroxypropylcellulose) (HPC) 87 % of control | [10] 91 % of control and 93 % of control | [12] 91 % of control

C#CCSc1n[nH]c(=O)n1C1CCCCC1
inactive: [13] 99 % of control | [14] 106 % of control | [15] 106 % of control

CN(C)C1(c2ccc3ccccc3c2)CS(=O)(=O)C1
inactive: [16] 100 % of control | dose: 200.0 mg/kg/injection, schedule: Q04DX002 (ip), vehicle: saline with Tween-80 98 % of control | dose: 400.0 mg/kg/injection, schedule: Q04DX002 (ip), vehicle: saline with Tween-80 92 % of control

O=C1NC(=O)N(CCO)C(=O)C1c1ccccc1 (stereo not given)
inactive: [7] 101 % of control | [8] 101 % of control | [9] 94 % of control

[I][Pt+2][I].[NH-]C1CCCC1[NH-] (stereo not given)
active: [16] 166 % of control

COc1cccc(C(=O)c2ccc(OC)cc2C(=O)O)c1
inactive: [10] 95 % of control | [11] 101 % of control | [12] 97 % of control

CCOC(=O)C(C(C)N1CCOCC1)N1CCOCC1 (stereo not given)
inactive: [10] 110 % of control | [11] 100 % of control | [12] 101 % of control
